Laboratory results taken from ChEMBL document CHEMBL4196048, “Discovery and characterization of a potent Wnt and hedgehog signaling pathways dual inhibitor” (Eur J Med Chem, 2018).
pIC50: −log10 of the molar value. Active and inactive are the calls of the source. The rule behind the calls is not given here.

Assays:
[1] = target: T1, Protein-serine O-palmitoleoyltransferase porcupine (Mus musculus, UniProt Q9JJJ7); experiment: (§1) Inhibition of porcupine in mouse L Wnt3A cells co-cultured with HEK293 cells assessed as suppression of Wnt signaling after 48 hrs by Super-top flash reporter gene assay; format: cell-based
T1 sequence (Q9JJJ7 whole entry): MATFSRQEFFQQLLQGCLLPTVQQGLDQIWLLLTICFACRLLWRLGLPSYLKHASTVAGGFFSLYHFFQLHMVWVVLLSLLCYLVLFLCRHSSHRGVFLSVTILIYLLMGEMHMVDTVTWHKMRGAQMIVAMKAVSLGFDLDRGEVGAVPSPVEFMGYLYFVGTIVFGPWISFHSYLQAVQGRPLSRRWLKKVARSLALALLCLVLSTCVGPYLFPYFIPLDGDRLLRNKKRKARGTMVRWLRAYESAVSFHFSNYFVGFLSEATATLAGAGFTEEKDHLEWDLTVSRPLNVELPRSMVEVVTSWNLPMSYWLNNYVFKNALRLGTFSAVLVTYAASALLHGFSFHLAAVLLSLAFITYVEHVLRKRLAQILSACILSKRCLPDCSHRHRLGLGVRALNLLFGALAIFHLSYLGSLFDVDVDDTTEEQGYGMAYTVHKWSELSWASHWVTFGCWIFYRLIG

Protein smoothened [2] = target: Protein smoothened (Mus musculus, UniProt P56726); experiment: (§2) Inhibition of smo-mediated hedgehog signaling pathway in mouse NIH3T3 cells expressing GRE-Luc reporter gene assessed as inhibition of SAG-induced GRE-Luc reporter activity after 48 hrs by luminescence assay; format: functional, cell-based
[3] = AUC (0 to 24 hrs) in ICR mouse at 2 mg/kg, iv by LC-MS/MS analysis; format: ADME, organism-based; design: dose 2 mg/kg, time < 24 hr, route intravenous; conditions: in vivo
[4] = Clearance in ICR mouse at 2 mg/kg, iv by LC-MS/MS analysis; format: ADME, organism-based; conditions: in vivo
[5] = Volume of distribution at steady state in ICR mouse at 2 mg/kg, iv by LC-MS/MS analysis; format: ADME, organism-based; conditions: in vivo, read-out: Vdss
[6] = Half life in ICR mouse at 2 mg/kg, iv by LC-MS/MS analysis; format: ADME, organism-based; conditions: in vivo
[7] = AUC (0 to 24 hrs) in ICR mouse at 10 mg/kg, po administered via gavage by LC-MS/MS analysis; format: ADME, organism-based; design: time < 24 hr, dose 10 mg/kg, route oral; conditions: in vivo
[8] = Cmax in ICR mouse at 10 mg/kg, po administered via gavage by LC-MS/MS analysis; format: ADME, organism-based; design: dose 10 mg/kg, route oral; conditions: in vivo
[9] = Tmax in ICR mouse at 10 mg/kg, po administered via gavage by LC-MS/MS analysis; format: ADME, organism-based; conditions: in vivo
[10] = Half life in ICR mouse at 10 mg/kg, po administered via gavage by LC-MS/MS analysis; format: ADME, organism-based; conditions: in vivo
[11] = Oral bioavailability in ICR mouse at 10 mg/kg administered via gavage by LC-MS/MS analysis; format: ADME, organism-based; conditions: in vivo
[12] = Protein binding in mouse plasma; format: ADME, cell-free; conditions: read-out: PPB (converted)
Mus musculus [13] = experiment: Toxicity in C57BL/6J mouse assessed as effect on behavior at 10 mg/kg administered for 7 days via oral gavage; format: organism-based; conditions: in vivo, 168 h
Mus musculus [14] = experiment: Toxicity in C57BL/6J mouse assessed as effect on food consumption at 10 mg/kg administered for 7 days via oral gavage; format: organism-based; conditions: in vivo, 168 h
Mus musculus [15] = experiment: Toxicity in C57BL/6J mouse assessed as effect on WBC count in blood at 10 mg/kg administered for 7 days via oral gavage; format: organism-based; conditions: in vivo, 168 h
Mus musculus [16] = experiment: Toxicity in C57BL/6J mouse assessed as effect on lymphocyte count in blood at 10 mg/kg administered for 7 days via oral gavage; format: organism-based; conditions: in vivo, 168 h
Mus musculus [17] = experiment: Toxicity in C57BL/6J mouse assessed as body weight loss at 10 mg/kg administered for 7 days via oral gavage; format: organism-based; conditions: in vivo, 168 h
Mus musculus [18] = experiment: Toxicity in C57BL/6J mouse assessed as effect on RBC count in blood at 10 mg/kg administered for 7 days via oral gavage; format: organism-based; conditions: in vivo, 168 h
Mus musculus [19] = experiment: Toxicity in C57BL/6J mouse assessed as effect on hemoglobin content in blood at 10 mg/kg administered for 7 days via oral gavage; format: organism-based; conditions: in vivo, 168 h
Mus musculus [20] = experiment: Toxicity in C57BL/6J mouse assessed as effect on platelet count in blood at 10 mg/kg administered for 7 days via oral gavage; format: organism-based; conditions: in vivo, 168 h
Mus musculus [21] = experiment: Toxicity in C57BL/6J mouse assessed as effect on heart weight at 10 mg/kg administered for 7 days via oral gavage; format: organism-based; conditions: in vivo, 168 h
Mus musculus [22] = experiment: Toxicity in C57BL/6J mouse assessed as effect on liver weight at 10 mg/kg administered for 7 days via oral gavage; format: organism-based; conditions: in vivo, 168 h
Mus musculus [23] = experiment: Toxicity in C57BL/6J mouse assessed as effect on spleen weight at 10 mg/kg administered for 7 days via oral gavage; format: organism-based; conditions: in vivo, 168 h
Mus musculus [24] = experiment: Toxicity in C57BL/6J mouse assessed as effect on lung weight at 10 mg/kg administered for 7 days via oral gavage; format: organism-based; conditions: in vivo, 168 h
Mus musculus [25] = experiment: Toxicity in C57BL/6J mouse assessed as effect on kidney weight at 10 mg/kg administered for 7 days via oral gavage; format: organism-based; conditions: in vivo, 168 h
Mus musculus [26] = experiment: Toxicity in C57BL/6J mouse assessed as effect on colon architecture at 10 mg/kg administered via oral gavage for 7 days by hematoxylin and eosin staining-based method; format: organism-based; conditions: in vivo, 168 h
Mus musculus [27] = experiment: Toxicity in C57BL/6J mouse assessed as effect on stomach architecture at 10 mg/kg administered via oral gavage for 7 days by hematoxylin and eosin staining-based method; format: organism-based; conditions: in vivo, 168 h
Mus musculus [28] = experiment: Toxicity in C57BL/6J mouse assessed as effect on liver architecture at 10 mg/kg administered via oral gavage for 7 days by hematoxylin and eosin staining-based method; format: organism-based; conditions: in vivo, 168 h
Mus musculus [29] = experiment: Toxicity in C57BL/6J mouse assessed as effect on spleen architecture at 10 mg/kg administered via oral gavage for 7 days by hematoxylin and eosin staining-based method; format: organism-based; conditions: in vivo, 168 h
[30] = target: T2, Protein-serine O-palmitoleoyltransferase porcupine (Homo sapiens) (UniProt Q9H237); experiment: Inhibition of porcupine in HEK293T cells transfected with pLibin-WNT3A plasmid assessed as reduction in Wnt3A secretion into cell culture medium at 100 nM after 48 hrs by Western blot method; format: cell-based
T2 sequence (whole entry): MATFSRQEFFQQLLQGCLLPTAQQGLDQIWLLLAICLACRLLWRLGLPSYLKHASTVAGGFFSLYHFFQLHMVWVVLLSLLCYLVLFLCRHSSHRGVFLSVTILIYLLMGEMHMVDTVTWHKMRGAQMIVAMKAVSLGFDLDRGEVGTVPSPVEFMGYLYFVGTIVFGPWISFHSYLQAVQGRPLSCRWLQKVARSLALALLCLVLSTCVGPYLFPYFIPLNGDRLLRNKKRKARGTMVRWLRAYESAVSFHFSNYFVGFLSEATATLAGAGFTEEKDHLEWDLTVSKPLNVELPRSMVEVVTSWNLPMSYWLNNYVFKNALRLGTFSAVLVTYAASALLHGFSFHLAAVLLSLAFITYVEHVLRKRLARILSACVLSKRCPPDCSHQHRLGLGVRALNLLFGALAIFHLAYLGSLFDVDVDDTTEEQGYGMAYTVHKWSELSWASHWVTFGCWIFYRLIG

[31] = target: T2, Protein-serine O-palmitoleoyltransferase porcupine (Homo sapiens); experiment: Inhibition of porcupine in HEK293 cells transfected with pLibin-WNT3A plasmid assessed as downregulation of disheveled 2 phosphorylation at 100 nM after 48 hrs by Western blot analysis; format: cell-based
[32] = target: T2, Protein-serine O-palmitoleoyltransferase porcupine (Homo sapiens); experiment: Inhibition of porcupine in HEK293 cells transfected with pLibin-WNT3A plasmid assessed as downregulation of LRP6 phosphorylation at 100 nM after 48 hrs by Western blot analysis; format: cell-based
[33] = target: T2, Protein-serine O-palmitoleoyltransferase porcupine (Homo sapiens); experiment: Inhibition of porcupine-mediated Wnt/beta-catenin signaling in human PA1 cells assessed as downregulation of Axin2 mRNA expression after 24 hrs by real-time PCR analysis; format: cell-based
[34] = target: T2, Protein-serine O-palmitoleoyltransferase porcupine (Homo sapiens); experiment: Inhibition of porcupine-mediated Wnt/beta-catenin signaling in human PA1 cells assessed as downregulation of disheveled 2 phosphorylation after 48 hrs by Western blot analysis; format: cell-based
[35] = target: T2, Protein-serine O-palmitoleoyltransferase porcupine (Homo sapiens); experiment: Inhibition of porcupine-mediated Wnt/beta-catenin signaling in human PA1 cells assessed as downregulation of LRP6 phosphorylation after 48 hrs by Western blot analysis; format: cell-based
[36] = target: Protein smoothened (Mus musculus) (UniProt P56726); experiment: as §2; format: functional, cell-based
Astrocyte = experiment: Cytotoxicity against primary astrocytes (unknown origin) up to 20 uM after 24 hrs by MTT assay; format: cell-based
GES1 = experiment: Cytotoxicity against human GES-1 cells up to 20 uM by Cell Titer-Glo assay; format: cell-based
[37] = target: Protein smoothened (Mus musculus) (UniProt P56726); experiment: Inhibition of smo-mediated hedgehog signaling pathway in mouse NIH3T3-Luc cells assessed as downregulation of 1 to 100 nM SAG-induced Gli luciferase activity after 48 hrs luminescence assay; format: functional, cell-based
Protein smoothened [38] = target: Protein smoothened (Homo sapiens, UniProt Q99835); experiment: Inhibition of Bodipy-cyclopamine binding to human Smo expressed in human U2OS cells after 2 hrs by high content fluorescence imaging analysis; format: cell-based
[39] = target: Protein smoothened (Mus musculus) (UniProt P56726); experiment: Inhibition of smo-mediated hedgehog signaling pathway in mouse NIH3T3-Luc cells assessed as downregulation of Gli mRNA expression after 48 hrs by real-time PCR analysis; format: functional, cell-based
HEK-293T = experiment: Effect on Wnt3A levels in HEK293T cells transfected with pLibin-WNT3A plasmid at 100 nM after 48 hrs by Western blot method; format: functional, cell-based; conditions: Homo sapiens
Mus musculus [40] = experiment: Time at which blood concentration stays above in vitro IC50 for porcupine-mediated Wnt signaling and smo-mediated hedgehog signaling pathway in ICR mouse at 10 mg/kg, po administered via gavage by LC-MS/MS analysis; format: ADME, organism-based; conditions: in vivo
[41] = target: Protein smoothened (Mus musculus) (UniProt P56726); experiment: Inhibition of smo-mediated hedgehog signaling pathway in mouse NIH3T3-Luc cells assessed as downregulation of Gli mRNA expression at 1 uM after 48 hrs by real-time PCR analysis; format: functional, cell-based
[42] = target: T3, Protein-serine O-palmitoleoyltransferase porcupine (Mus musculus) (UniProt Q9JJJ7); experiment: as §1; format: cell-based
T3 sequence (whole entry): T1 sequence (Q9JJJ7 whole entry)

Protein smoothened (Mus musculus), sequence (P56726 whole entry): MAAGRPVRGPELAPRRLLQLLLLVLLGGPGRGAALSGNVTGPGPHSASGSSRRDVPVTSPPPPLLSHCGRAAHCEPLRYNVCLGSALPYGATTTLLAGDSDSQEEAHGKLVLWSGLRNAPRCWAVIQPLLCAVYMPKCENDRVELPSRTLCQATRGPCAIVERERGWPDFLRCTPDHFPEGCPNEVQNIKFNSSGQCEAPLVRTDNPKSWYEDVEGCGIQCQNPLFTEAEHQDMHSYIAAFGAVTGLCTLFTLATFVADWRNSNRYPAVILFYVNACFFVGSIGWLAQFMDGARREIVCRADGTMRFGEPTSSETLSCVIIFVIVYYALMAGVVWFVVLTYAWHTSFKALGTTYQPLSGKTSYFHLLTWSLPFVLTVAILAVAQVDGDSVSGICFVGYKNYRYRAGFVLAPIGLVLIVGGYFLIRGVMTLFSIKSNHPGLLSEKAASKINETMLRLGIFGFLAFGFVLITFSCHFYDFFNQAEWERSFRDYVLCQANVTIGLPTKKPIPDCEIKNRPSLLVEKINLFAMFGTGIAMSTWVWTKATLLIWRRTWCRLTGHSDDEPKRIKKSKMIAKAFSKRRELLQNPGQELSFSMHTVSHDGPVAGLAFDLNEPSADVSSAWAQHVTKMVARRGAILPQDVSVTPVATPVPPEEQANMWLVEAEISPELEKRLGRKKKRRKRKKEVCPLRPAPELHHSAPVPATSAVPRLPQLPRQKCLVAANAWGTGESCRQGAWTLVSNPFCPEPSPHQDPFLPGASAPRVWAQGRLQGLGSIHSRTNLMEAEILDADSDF
Protein smoothened (Mus musculus, UniProt P56726), sequence (P56726 whole entry): as above
Protein smoothened (Homo sapiens, UniProt Q99835), sequence (Q99835 whole entry): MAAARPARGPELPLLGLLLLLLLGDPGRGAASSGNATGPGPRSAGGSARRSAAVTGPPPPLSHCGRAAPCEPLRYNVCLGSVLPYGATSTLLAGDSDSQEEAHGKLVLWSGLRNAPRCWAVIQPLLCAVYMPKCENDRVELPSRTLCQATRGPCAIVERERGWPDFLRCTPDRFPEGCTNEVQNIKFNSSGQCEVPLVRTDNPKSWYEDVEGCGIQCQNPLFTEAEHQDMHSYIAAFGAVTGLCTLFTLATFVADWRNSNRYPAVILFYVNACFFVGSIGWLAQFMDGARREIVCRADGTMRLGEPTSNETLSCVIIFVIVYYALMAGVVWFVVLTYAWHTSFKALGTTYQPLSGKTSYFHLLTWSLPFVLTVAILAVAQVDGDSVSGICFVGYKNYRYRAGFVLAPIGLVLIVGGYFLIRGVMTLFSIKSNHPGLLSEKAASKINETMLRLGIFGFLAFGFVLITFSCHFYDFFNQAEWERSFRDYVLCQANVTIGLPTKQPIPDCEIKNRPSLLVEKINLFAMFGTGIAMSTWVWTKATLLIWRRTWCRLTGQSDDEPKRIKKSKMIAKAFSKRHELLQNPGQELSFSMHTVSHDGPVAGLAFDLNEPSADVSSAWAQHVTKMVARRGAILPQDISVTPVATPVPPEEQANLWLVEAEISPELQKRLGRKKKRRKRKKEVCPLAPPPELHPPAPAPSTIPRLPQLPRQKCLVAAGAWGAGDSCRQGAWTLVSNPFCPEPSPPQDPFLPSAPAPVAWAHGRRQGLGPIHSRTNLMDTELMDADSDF

Cc1cc(-c2ncc(CNC(=O)c3ccc4c(c3)[nH]c3ccccc34)cc2C#N)ccn1
pIC50 [1]: 9.14
pIC50 (Protein smoothened [2]): 5.91

Cc1cc(-c2ncc(CNC(=O)c3ccc4c(c3)Cc3ccccc3-4)cc2F)ccn1
pIC50 [1]: 8.19

COc1cc(CNC(=O)c2ccc3c(c2)[nH]c2ccccc23)cnc1-c1ccnc(C)c1
pIC50 [1]: 8.72
pIC50 (Protein smoothened [2]): 5.44

Cc1cc(-c2ncc(CNC(=O)c3ccc4c(c3)[nH]c3ccccc34)cc2F)ccn1
AUC(0-t) at 24 h [3]: 5460 ng·h/mL
clearance [4]: 6.1 mL/min/kg
Vd [5]: 0.4 L/kg
half-life [6]: 66 min
AUC(0-t) at 24 h [7]: 13500 ng·h/mL
Cmax [8]: 5140 ng/mL
Tmax [9]: 30 min
half-life [10]: 126 min
bioavailability [11]: 49%
fraction unbound [12]: 0.007
Activity (Mus musculus [13]): Non-Toxic
Activity (Mus musculus [14]): Non-Toxic
Activity (Mus musculus [15]): Non-Toxic
Activity (Mus musculus [16]): Non-Toxic
Activity (Mus musculus [17]): Non-Toxic
Activity (Mus musculus [18]): Non-Toxic
Activity (Mus musculus [19]): Non-Toxic
Activity (Mus musculus [20]): Non-Toxic
Activity (Mus musculus [21]): Non-Toxic
Activity (Mus musculus [22]): Non-Toxic
Activity (Mus musculus [23]): Non-Toxic
Activity (Mus musculus [24]): Non-Toxic
Activity (Mus musculus [25]): Non-Toxic
Activity (Mus musculus [26]): Non-Toxic
Activity (Mus musculus [27]): Non-Toxic
Activity (Mus musculus [28]): Non-Toxic
Activity (Mus musculus [29]): Non-Toxic
inhibition [30]: Active
inhibition [31]: Active
inhibition [32]: Active
inhibition [33]: Active
inhibition [34]: Active
inhibition [35]: Active
inhibition [36]: Dose-dependent effect
pIC50 (Protein smoothened [2]): 7.15
Activity (Astrocyte): Non-Toxic
Activity (GES1): Non-Toxic
inhibition [37]: Active
pIC50 (Protein smoothened [38]): < 5.00
inhibition [39]: Dose-dependent effect
Activity (HEK-293T): inactive
Time (Mus musculus [40]): 10 h

Cc1cc(-c2ncc(CNC(=O)c3ccc4c(c3)oc3ccccc34)cc2F)ccn1
pIC50 [1]: 8.68

Cc1cc(-c2ncc(CC(=O)Nc3ccc(-c4cnccn4)cn3)cc2C)ccn1
inhibition [30]: Active
inhibition [31]: Active
inhibition [32]: Active
inhibition [33]: Active
inhibition [34]: Active
inhibition [35]: Active
inhibition [36]: inactive
inhibition [41]: inactive
Activity (HEK-293T): inactive

CS(=O)(=O)c1ccc(C(=O)Nc2ccc(Cl)c(-c3ccccn3)c2)c(Cl)c1
inhibition [42]: inactive
inhibition [30]: inactive
inhibition [33]: inactive
inhibition [34]: inactive
inhibition [35]: inactive
